According to patent publication US8895605B2, “Pyrrolidine-substituted flavones as radio-sensitizers for use in the treatment of cancer” (Piramal Enterprises Limited, priority 2009, dated 2014):

Assays:
[1] = system: Head and Neck carcinoma (FaDu) xenograft; experiment: In-vivo xenograft study, growth inhibition; conditions: FaDu xenograft in SCID mice
From the text: The assay can be carried out according to the method described in Clinical Cancer Research, 2003, 9, 6052-6061; the disclosure of which is incorporated by reference for the teaching of the assay. The in-vivo studies can be carried out by using Xenograft models in Severe combined immune deficiency (SCID) mice strain-CBySmn.CB17-Prkdc^scid/J, by the method described below. The statistically significant number of mice per group (n=6) is chosen in order to be able to statistically evaluate the study data. Six to eight weeks old SCID mice were used. Head and neck cancer cells are grown in MEM medium containing 10% fetal calf serum in 5% CO2 incubator at 37° C. Cells are pelleted by centrifugation at 1000 rpm for 10 minutes. […] Body weight for all the groups is recorded for the entire period. Tumor size and other signs of toxicity (external) is recorded every day. […] Tumor growth in compound treated animals is calculated as T/C (Treated/Control)×100% and growth inhibition percent (GI %) was [100−T/C %] […] Treatment is continued for 18 days as mentioned in study design. • Tumor weight in milligram is calculated using the formula for a prolate ellipsoid: Tumor weight (mg)=Length (mm)×[Breadth (mm)^2]×0.5 • Treated to control ratio (T/C %) on a given day is calculated using the formula: [formula] […]

[2] = system: FaDu cell line; experiment: In-vitro clonogenic assay (Compound A alone and with radiation); format: cell-based, human; conditions: for Number of colonies 72 h after Compound A treatment / Number of colonies 96 h after Compound A treatment: 1500 cells/plate; for Number of colonies 72 h after Compound A treatment: control 138 colonies; for Number of colonies 96 h after Compound A treatment: control 185 colonies
Experimental: The assay has been carried out according to the method described in Radiotherapy and Oncology, 2004, 71, 213-221; the disclosure of which is incorporated by reference for the teaching of the assay. The Fa-Du cells from exponential phase cultures were harvested by trypsinization, counted and plated at a cell density of 1500 cells/well in six-well plate and four identical groups were made. First group served as control that was untreated. Different wells of the second and third group, 24 h after seeding were irradiated at room temperature at dose of 2, 4, 6, 8 and 10 Gy respectively. The third group was further treated, 24 h after irradiation (i.e. on the third day of the experiment) with IC50 concentration of Compound A. The fourth group was treated on the third day of the experiment with IC50 concentration of Compound A alone. After completion of 72 h and 96 h respectively, the medium was changed for all the wells and the plates incubated for a total period of 12-14 days from the first day of the experiment (i.e. the cell seeding day) to allow sufficient time for the cells to form colonies of at least 50 cells. The medium was aspirated and colonies were fixed with methanol and acetic acid mixture in the proportion of 2:1. The fixation procedure was repeated after rinsing with water. The plates were dried and colonies stained with 0.1% crystal violet for 5 min. The wells were finally rinsed with water and dried. […] FIG. 3 and FIG. 4 show the visual enhancement in the radiation response by 1 μM dose of Compound A, in FaDu cell line (Seeding density: 1500 cells/plate).

[3] = system: FaDu cell line; experiment: as above; format: cell-based, human; conditions: 3500 cells/well, 1 μM Compound A for 48 h and 96 h; colonies could not be counted
[4] = 1 μM Compound A (IC50) alone, no radiation
[5] = 2 Gy radiation, then 1 μM Compound A 24 h after radiation
[6] = 4 Gy radiation, then 1 μM Compound A 24 h after radiation
[7] = 6 Gy radiation, then 1 μM Compound A 24 h after radiation
[8] = 8 Gy radiation, then 1 μM Compound A 24 h after radiation
[9] = 10 Gy radiation, then 1 μM Compound A 24 h after radiation

CN1CC[C@@H](c2c(O)cc(O)c3c(=O)cc(-c4ccccc4Cl)oc23)[C@@H]1CO.Cl [Compound A, (+)-trans-2-(2-Chlorophenyl)-5,7-dihydroxy-8-(2-hydroxymethyl-1-methyl-pyrrolidin-3-yl)-chromen-4-one hydrochloride]
Average % growth inhibition (% GI) with respect to control group ([1]; Only Compound A, 35 mpk i.p. everyday for 18 days): 42%
Average % growth inhibition (% GI) with respect to control group ([1]; Radiation (3 Gy twice weekly, total 15 Gy) + Compound A 35 mpk i.p. everyday for 18 days): 75%
Number of colonies 72 h after Compound A treatment [2, 4]: 38
Number of colonies 96 h after Compound A treatment [2, 4]: 36
Radiation response in clonogenic assay ([2]; 1 μM Compound A for both 72 h and 96 h, at both 4 and 6 Gy, 1500 cells/well): enhanced the radiation response
Number of colonies 72 h after Compound A treatment [2, 5]: 45
Number of colonies 96 h after Compound A treatment [2, 5]: 40
Number of colonies 72 h after Compound A treatment [2, 6]: 18
Number of colonies 96 h after Compound A treatment [2, 6]: 17
Number of colonies 72 h after Compound A treatment [2, 7]: 7
Number of colonies 96 h after Compound A treatment [2, 7]: 6
Number of colonies 72 h after Compound A treatment [2, 8]: 0
Number of colonies 96 h after Compound A treatment [2, 8]: 2
Number of colonies 72 h after Compound A treatment [2, 9]: 0
Number of colonies 96 h after Compound A treatment [2, 9]: 0
Radiation response in clonogenic assay (visual) [3]: visual enhancement in radiation response
